Assay results from patent publication US11330821B2, “Herbicidal compounds” (Syngenta Participations AG, priority 2015, dated 2022).

Tests used:
Type in all cases: in vivo
Details in all cases: post-emergence spray, evaluated after 13 days
[1] = tested on: Amaranthus retroflexus (AMARE); experiment: Post-emergence efficacy, Amaranthus retroflexus
Protocol: (§1) B1 Post-Emergence Efficacy
(§2) Seeds of a variety of test species are shown in standard soil in pots:—Solanum nigrum (SOLNI), Amaranthus retroflexus (AMARE), Setaria faberi (SETFA), Echinochloa crus-galli (ECHCG), Ipomoea hederacea (IPOHE), Lolium perenne (LOLPE). After 8 days cultivation (post-emergence) under controlled conditions in a glasshouse (at 24/16° C., day/night; 14 hours light; 65% humidity), the plants are sprayed with an aqueous spray solution derived from the formulation of the technical active ingredient in acetone/water (50:50) solution containing 0.5% Tween 20 (polyoxyethylene sorbitan monolaurate, CAS RN 9005-64-5). Compounds are applied at 1000 and 62.5 g/ha. The test plants are then grown in a glasshouse under controlled conditions in a glasshouse (at 24/16° C., day/night; 14 hours light; 65% humidity) and watered twice daily. After 13 days, the test is evaluated for the percentage damage caused to the plant. The biological activities are assessed on a five point scale (5=80-100%; 4=60-79%; 3=40-59%; 2=20-39%; 1=0-19%).

Solanum nigrum (SOLNI) = experiment: Post-emergence efficacy, Solanum nigrum
Protocol: as §1, §2

Setaria faberi (SETFA) = experiment: Post-emergence efficacy, Setaria faberi
Protocol: as §1, §2

Lolium perenne (LOLPE) = experiment: Post-emergence efficacy, Lolium perenne
Protocol: as §1, §2

[2] = tested on: Echinochloa crus-galli (ECHCG); experiment: Post-emergence efficacy, Echinochloa crus-galli
Protocol: as §1, §2

[3] = tested on: Ipomoea hederacea (IPOHE); experiment: Post-emergence efficacy, Ipomoea hederacea
Protocol: as §1, §2

Q: Cc1nc(COc2c(Cl)ccc(F)c2-c2c(O)c(C)nn(C)c2=O)cs1 [Compound 1.33] was tested. Which “AMARE percentage damage caused to the plant (five point scale)” value (“AMARE percentage damage caused” for short) ([1]; 62.5 g/ha) did it give?
A: The value was 3 (3=40-59%).

Q: And the “AMARE percentage damage caused” value ([1]; 1000 g/ha)?
A: Its value is 5 (5=80-100%).

Q: What about the “SOLNI percentage damage caused to the plant (five point scale)” value (“SOLNI percentage damage caused” below) (Solanum nigrum (SOLNI); 62.5 g/ha) of the same molecule?
A: Its value is 4 (4=60-79%).

Q: And the “SOLNI percentage damage caused” value (Solanum nigrum (SOLNI); 1000 g/ha)?
A: The value was 5 (5=80-100%).

Q: What about the “SETFA percentage damage caused to the plant (five point scale)” value (shortened to “SETFA percentage damage caused”) (Setaria faberi (SETFA); 62.5 g/ha) of the same molecule?
A: Its value is 2 (2=20-39%).

Q: What about the “SETFA percentage damage caused” value (Setaria faberi (SETFA); 1000 g/ha) of the same molecule?
A: Its value is 5 (5=80-100%).

Q: And the “LOLPE percentage damage caused to the plant (five point scale)” value (“LOLPE percentage damage caused” for short) (Lolium perenne (LOLPE); 62.5 g/ha)?
A: Its value is 2 (2=20-39%).

Q: And the “LOLPE percentage damage caused” value (Lolium perenne (LOLPE); 1000 g/ha)?
A: Its value is 4 (4=60-79%).

Q: And the “ECHCG percentage damage caused to the plant (five point scale)” value (“ECHCG percentage damage caused” below) ([2]; 62.5 g/ha)?
A: Its value is 3 (3=40-59%).

Q: What about the “ECHCG percentage damage caused” value ([2]; 1000 g/ha) of the same molecule?
A: The value was 4 (4=60-79%).

Q: What about the “IPOHE percentage damage caused to the plant (five point scale)” value (shortened to “IPOHE percentage damage caused”) ([3]; 62.5 g/ha) of the same molecule?
A: Its value is 4 (4=60-79%).

Q: What about the “IPOHE percentage damage caused” value ([3]; 1000 g/ha) of the same molecule?
A: The value was 5 (5=80-100%).

Q: What does the source list for Cc1nn(C)c(=O)c(-c2c(F)ccc(Cl)c2OCc2cccnc2)c1O [Compound 1.23]?
A: AMARE percentage damage caused to the plant (five point scale) ([1]; 62.5 g/ha): 4 (4=60-79%); AMARE percentage damage caused to the plant (five point scale) ([1]; 1000 g/ha): 5 (5=80-100%); SOLNI percentage damage caused to the plant (five point scale) (Solanum nigrum (SOLNI); 62.5 g/ha): 4 (4=60-79%); SOLNI percentage damage caused to the plant (five point scale) (Solanum nigrum (SOLNI); 1000 g/ha): 5 (5=80-100%); SETFA percentage damage caused to the plant (five point scale) (Setaria faberi (SETFA); 62.5 g/ha): 2 (2=20-39%); SETFA percentage damage caused to the plant (five point scale) (Setaria faberi (SETFA); 1000 g/ha): 5 (5=80-100%); LOLPE percentage damage caused to the plant (five point scale) (Lolium perenne (LOLPE); 62.5 g/ha): 2 (2=20-39%); LOLPE percentage damage caused to the plant (five point scale) (Lolium perenne (LOLPE); 1000 g/ha): 5 (5=80-100%); ECHCG percentage damage caused to the plant (five point scale) ([2]; 62.5 g/ha): 2 (2=20-39%); ECHCG percentage damage caused to the plant (five point scale) ([2]; 1000 g/ha): 5 (5=80-100%); IPOHE percentage damage caused to the plant (five point scale) ([3]; 62.5 g/ha): 4 (4=60-79%); IPOHE percentage damage caused to the plant (five point scale) ([3]; 1000 g/ha): 5 (5=80-100%)

Q: What does the source list for Cc1nn(C)c(=O)c(-c2c(Cl)ccc(Cl)c2OCc2cccnc2)c1O [Compound 1.02]?
A: AMARE percentage damage caused to the plant (five point scale) ([1]; 62.5 g/ha): 4 (4=60-79%); AMARE percentage damage caused to the plant (five point scale) ([1]; 1000 g/ha): 4 (4=60-79%); SOLNI percentage damage caused to the plant (five point scale) (Solanum nigrum (SOLNI); 62.5 g/ha): 4 (4=60-79%); SOLNI percentage damage caused to the plant (five point scale) (Solanum nigrum (SOLNI); 1000 g/ha): 5 (5=80-100%); SETFA percentage damage caused to the plant (five point scale) (Setaria faberi (SETFA); 62.5 g/ha): 3 (3=40-59%); SETFA percentage damage caused to the plant (five point scale) (Setaria faberi (SETFA); 1000 g/ha): 5 (5=80-100%); LOLPE percentage damage caused to the plant (five point scale) (Lolium perenne (LOLPE); 62.5 g/ha): 2 (2=20-39%); LOLPE percentage damage caused to the plant (five point scale) (Lolium perenne (LOLPE); 1000 g/ha): 4 (4=60-79%); ECHCG percentage damage caused to the plant (five point scale) ([2]; 62.5 g/ha): 3 (3=40-59%); ECHCG percentage damage caused to the plant (five point scale) ([2]; 1000 g/ha): 4 (4=60-79%); IPOHE percentage damage caused to the plant (five point scale) ([3]; 62.5 g/ha): 3 (3=40-59%); IPOHE percentage damage caused to the plant (five point scale) ([3]; 1000 g/ha): 5 (5=80-100%)

Q: With Cc1nc(COc2c(Cl)ccc(Cl)c2-c2c(O)c(C)nn(C)c2=O)cs1 [Compound 1.12] as the molecule, how does the “AMARE percentage damage caused” value ([1]; 62.5 g/ha) read?
A: The value was 3 (3=40-59%).

Q: And the “AMARE percentage damage caused” value ([1]; 1000 g/ha)?
A: The value was 5 (5=80-100%).

Q: What about the “SOLNI percentage damage caused” value (Solanum nigrum (SOLNI); 62.5 g/ha) of the same molecule?
A: Its value is 3 (3=40-59%).

Q: And the “SOLNI percentage damage caused” value (Solanum nigrum (SOLNI); 1000 g/ha)?
A: Its value is 5 (5=80-100%).

Q: What about the “SETFA percentage damage caused” value (Setaria faberi (SETFA); 62.5 g/ha) of the same molecule?
A: The value was 2 (2=20-39%).

Q: And the “SETFA percentage damage caused” value (Setaria faberi (SETFA); 1000 g/ha)?
A: The value was 5 (5=80-100%).

Q: And the “LOLPE percentage damage caused” value (Lolium perenne (LOLPE); 62.5 g/ha)?
A: The value was 1 (1=0-19%).

Q: And the “LOLPE percentage damage caused” value (Lolium perenne (LOLPE); 1000 g/ha)?
A: Its value is 4 (4=60-79%).

Q: What about the “ECHCG percentage damage caused” value ([2]; 62.5 g/ha) of the same molecule?
A: The value was 2 (2=20-39%).

Q: What about the “ECHCG percentage damage caused” value ([2]; 1000 g/ha) of the same molecule?
A: Its value is 4 (4=60-79%).

Q: And the “IPOHE percentage damage caused” value ([3]; 62.5 g/ha)?
A: Its value is 4 (4=60-79%).

Q: And the “IPOHE percentage damage caused” value ([3]; 1000 g/ha)?
A: Its value is 5 (5=80-100%).

Q: Cc1csc(COc2c(Cl)ccc(Cl)c2-c2c(O)c(C)nn(C)c2=O)n1 [Compound 1.13] was tested. Which “AMARE percentage damage caused” value ([1]; 62.5 g/ha) did it give?
A: The value was 3 (3=40-59%).

Q: What about the “AMARE percentage damage caused” value ([1]; 1000 g/ha) of the same molecule?
A: The value was 4 (4=60-79%).

Q: And the “SOLNI percentage damage caused” value (Solanum nigrum (SOLNI); 62.5 g/ha)?
A: The value was 4 (4=60-79%).

Q: What about the “SOLNI percentage damage caused” value (Solanum nigrum (SOLNI); 1000 g/ha) of the same molecule?
A: Its value is 5 (5=80-100%).

Q: And the “SETFA percentage damage caused” value (Setaria faberi (SETFA); 62.5 g/ha)?
A: The value was 4 (4=60-79%).

Q: And the “SETFA percentage damage caused” value (Setaria faberi (SETFA); 1000 g/ha)?
A: Its value is 5 (5=80-100%).

Q: What about the “LOLPE percentage damage caused” value (Lolium perenne (LOLPE); 62.5 g/ha) of the same molecule?
A: Its value is 2 (2=20-39%).

Q: And the “LOLPE percentage damage caused” value (Lolium perenne (LOLPE); 1000 g/ha)?
A: Its value is 4 (4=60-79%).

Q: And the “ECHCG percentage damage caused” value ([2]; 62.5 g/ha)?
A: Its value is 3 (3=40-59%).

Q: What about the “ECHCG percentage damage caused” value ([2]; 1000 g/ha) of the same molecule?
A: Its value is 5 (5=80-100%).

Q: What about the “IPOHE percentage damage caused” value ([3]; 62.5 g/ha) of the same molecule?
A: Its value is 4 (4=60-79%).

Q: What about the “IPOHE percentage damage caused” value ([3]; 1000 g/ha) of the same molecule?
A: Its value is 5 (5=80-100%).
